Consider one compound from BindingDB's records for patent US20240083872 (Shionogi, 2024).

In test [1] the target is 5-hydroxytryptamine receptor 2A (Homo sapiens, UniProt P28223). As to the kind of experiment: 5-HT2A Receptor Binding Inhibition Assay. The protocol:
(§1) Binding Test of the Compound According to the Present Invention: In advance, 0.5 μL of the compound solution dissolved in DMSO was dispensed into a microplate, and the cell membrane and the hot ligand were diluted with Assay buffer, respectively. Then, the Assay buffer containing the diluted cell membrane was dispensed into a microplate at 50 μL/well. Then, the radioactive ligand solution was dispensed into a microplate at 50 μL/well, and the plate was sealed. Then, it was allowed to stand at room temperature (25° C.) for 1.5 hours. During this period, 50 mmol/L Tris-HCl (pH 7.4) was dispensed into a GF/B UniFilter plate at 50 μL/well and allowed to stand at 4° C. for 1 hour or longer. After that, filtration was performed with Cell harvester (PerkinElmer). […] The radioactivity of [3H]-Ketanserin bound to the 5-HT2A receptor was measured using Microbeta2 (PerkinElmer) at a measurement time of 1 min/well. The non-specific binding was calculated from the radioactivity of [3H]-Ketanserin in the presence of 500 μmol/L Serotonin HCl with the unlabeled ligand, and the total binding was calculated from the radioactivity of [3H]-Ketanserin in the absence of the compound according to the present invention (Vehicle). Finally, the Ki value was calculated from the dose-response curve.

Test [2] addresses T1, 5-hydroxytryptamine receptor 2C (Homo sapiens, UniProt P28335).
T1 sequence (P28335 whole entry): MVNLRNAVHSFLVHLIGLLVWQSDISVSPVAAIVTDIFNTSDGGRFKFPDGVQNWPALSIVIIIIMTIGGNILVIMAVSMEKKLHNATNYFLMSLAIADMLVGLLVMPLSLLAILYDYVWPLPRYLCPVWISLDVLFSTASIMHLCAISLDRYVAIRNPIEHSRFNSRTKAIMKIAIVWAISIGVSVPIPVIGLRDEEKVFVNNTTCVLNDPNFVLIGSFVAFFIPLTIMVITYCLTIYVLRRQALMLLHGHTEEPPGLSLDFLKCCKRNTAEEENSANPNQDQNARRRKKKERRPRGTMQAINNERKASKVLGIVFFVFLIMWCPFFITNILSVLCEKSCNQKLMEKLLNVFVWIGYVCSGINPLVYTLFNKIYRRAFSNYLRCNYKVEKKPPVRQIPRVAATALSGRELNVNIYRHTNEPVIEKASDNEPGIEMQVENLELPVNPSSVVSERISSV
Nature of the test: 5-HT2C Receptor Binding Inhibition Assay. The protocol:
as §1, with “Invention:In” for “Invention: In”, “37° C.” for “room temperature (25° C.)”, “2” for “1.5”, “(PerkinElmer). After the GF/B UniFilter plate was dried at room temperature, MicroScinti 20 was dispensed into the GF/B UniFilter plate at 50 μL/well, and the plate was sealed.” for “(PerkinElmer).”, “[3H]-Mesulergine” for “[3H]-Ketanserin”, “(Vehicle).” for “(Vehicle). Finally, the Ki value was calculated from the dose-response curve.”

5-hydroxytryptamine receptor 2A, sequence (P28223 whole entry): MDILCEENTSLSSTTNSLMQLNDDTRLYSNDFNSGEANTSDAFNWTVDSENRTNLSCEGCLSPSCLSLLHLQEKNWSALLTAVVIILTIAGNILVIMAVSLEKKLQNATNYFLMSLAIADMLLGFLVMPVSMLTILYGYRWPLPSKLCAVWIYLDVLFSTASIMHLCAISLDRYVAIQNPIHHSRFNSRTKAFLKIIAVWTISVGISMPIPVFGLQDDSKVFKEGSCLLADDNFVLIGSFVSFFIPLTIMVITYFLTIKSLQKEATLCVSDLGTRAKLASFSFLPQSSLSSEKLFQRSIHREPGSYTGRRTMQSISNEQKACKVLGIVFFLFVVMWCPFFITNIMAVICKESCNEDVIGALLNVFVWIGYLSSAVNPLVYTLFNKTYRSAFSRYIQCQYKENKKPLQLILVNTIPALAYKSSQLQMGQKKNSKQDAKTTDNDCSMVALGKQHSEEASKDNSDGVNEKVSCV

`CC(C)CNc1ccc(CN(Cc2ccn(C)n2)C(=O)NC2CCN(C)CC2)cc1` [US20240083872, Compound I-030]: the Ki in test [1] was found to be 2.17 nM; in test [2], 7.76 nM.
